Consider 14 molecules from patent US20230099567A1, “COMPOSITION FOR TREATMENT, PREVENTION, OR AMELIORATION OF LYMPHEDEMA” (RAPPELER CO., LTD., priority 2020, published 2023).

Data set [1] in a line: Physicochemical properties (pKa, logP, solubility). An excerpt:
Compound 1 is butein and the therapeutic effect on lymphedema thereof is disclosed in Korean Patent Publication No. 10-1533197 (published on Jul. 2, 2015).

A short description of data set [2]: Pharmacokinetic analysis in mice after I.V. and oral administration. The data set is classed as in vivo, mouse. Conditions: for BA (bioavailability): (AUCpo/AUCiv)×100; for AUC(0-inf) / Cmax: mouse, plasma; for Cmax: read-out: Cmax (maximum plasma concentration). The procedure: Compounds were administered to 5-week-old male CD-1 mice through 1 mg/kg tail vein administration (administration volume of 5 mL/kg), 20 mg/kg oral administration, and 100 mg/kg oral administration, respectively. Three mice were used for each independent experiment. Blood samples were taken in an amount of 20 μL to 30 μL via the saphenous vein at 5, 15, 30, 60, 120, 180, 360, and 1440 minutes.
In addition, pharmacokinetic parameters were calculated from non-compartmental analysis using Win Non-lin.
In Table 3, T1/2 denotes the terminal half-life, Cmax denotes the maximum plasma concentration, AUC-O denotes the area under the plasma concentration-time curve from time zero to infinity, and indicates exposure concentration of whole blood, and BA represents bioavailability expressed as (AUCpo/AUCiv)×100. […] Cmax and AUC∞ are mean±SD values obtained from three male ICR mice. Regarding blood exposure during systemic circulation of the compound, the compound was orally administered at an amount of 100 mg/kg, and then, AUC (area under the curve) was measured, and the obtained measurements were compared.

For another data set, the system named is lymphedema tissue. Briefly: Histological (H&E) analysis of lymphedema tissue of the right hind leg. The format is in vivo. To be noted: 7th day after surgery, right hind leg of mouse. From the text: (§1) Tissue samples were collected on the 7th day after surgery to induce lymphedema at a location 15 mm-25 mm from the right leg of the mouse. The harvested tissue samples were fixed with 10% formalin solution, and the specimens were cut to a thickness of 5 μm. Sections were deparaffinized in 100% xylene, rehydrated with a series of 100% ethanol, 95% ethanol, 90% ethanol, 80% ethanol, and 70% ethanol, and washed with water. Sections were reacted with hematoxylin solution at room temperature. After washing in PBS, sections were stained with eosin at room temperature. Images were acquired by a Pannoramic viewer microscope (3[…] Ltd., Hungary). Prepared slides were incubated using anti-mouse PPARγ (Santa Cruz Biotechnology, USA) and Alexa Fluor 488 and DAPI (Life Technologies, USA). Samples were analyzed using a Nikon ECLIPSE 80i microscope (Nikon Instruments Inc., Japan).
In FIG. 3A, the scale bar of the upper panel is 500 μm, and the scale bar of the lower panel is 100 μm.
In FIG. 4A, the scale bar of the upper panel is 200 μm, and the scale bar of the lower panel is 100 μm.

Data set [3] deals with lymphedema induced in mice. Description: Prophylactic effect on lymphedema formation, surgically induced murine lymphedema model (volume). The data set is classed as in vivo, mouse. Conditions: 7th day after surgery, oral administration 7 days before surgery, then once every two days, vs control group. The procedure:
All animal tests in the following examples were performed after obtaining approvals by the Institutional Animal Care and Use Committee (IACUC) of Sungkyunkwan University School of Medicine (Approval No.: […]-20150037). All methods were performed according to the approved guidelines. […] Briefly, major lymphatic sites including inguinal lymph nodes, popliteal lymph nodes, deep inguinal lymph nodes and femoral lymphatic vessels were removed, and the lower right leg of the mouse was limitedly cauterized under anesthesia.
Compounds 1, 7m, and 14a were each orally administered to mice for 7 days before surgical induction of lymphedema in mice.
On the other hand, in the control group, the compound 1 treatment group, the compound 7m treatment group, and the compound 14a treatment group, lymphedema was induced through surgery. After surgery, the compounds were administered once every two days.
The volume of lymphedema was measured on the 7th day after surgery, and the size of the lymphedema was recorded using a caliper ruler by a person who was blinded to the treatment status of the mice.

The next data set relates to TNFα. Briefly: mRNA expression of TNFα in lymphedema tissue. Conditions: 7th day after surgery, mouse. The format is in vivo. From the text: As a result, it was confirmed that the expression level of TNFα mRNA was decreased in the compound 1 treatment group and the compound 14a treatment group (with respect to the control group, *: P<0.05; with respect to compound 1, #: P<0.05).

Data set [4] concerns PPARγ and a target protein Fabp4. Briefly: Expression of PPARγ and Fabp4 in lymphedema tissue (western blot, mRNA). The data set is classed as in vivo. To be noted: mouse.
In a further data set the test system is PPARγ. Description: Immunofluorescence staining of PPARγ in epidermal layer of lymphedema tissue. The data set is classed as in vivo. To be noted: mouse.
Description: as §1
In addition, peroxisome […] (PPARγ) is a major regulator of lipogenesis, and as shown in FIG. 4B showing the results of immunofluorescence staining, the distribution of PPARγ in the epidermal layer of lymphedema tissue after treatment with compound 1 and compound 14a was suppressed.

In data set [5] the test system is LPS-induced TNFα production in mouse peritoneal macrophages. Briefly: LPS-induced TNFα production in mouse peritoneal macrophages (ELISA). The format is cell-based. Conditions: for IC50 / TNFα production inhibitory ability compared with butein (FIG. 1): mouse peritoneal macrophages; for IC50: 100 ng/ml LPS 24 h, measured twice, mean ± standard deviation, read-out: IC50, dose-dependent inhibition of TNFα production in macrophages; for IC50 value compared with positive control butein: TNFα production in macrophages; for TNFα production inhibitory ability compared with butein (FIG. 1): compound 20 μM, LPS-induced. The procedure: To isolate peritoneal macrophages, male Balb/c mice were intraperitoneally injected with 2 ml of 3.5% sterile thioglycolate (B D, Sparks, Md., USA) 4 days before being sacrificed. Mice were sacrificed by cervical dislocation, and peritoneal secretory cells were aseptically isolated through peritoneal washing with cold DMEM (HyClone, Logan, Utah, USA) containing 10% FBS (fetal bovine serum; HyClone) and 1% penicillin-streptomycin. After centrifugation, cells were resuspended and counted using a TC20 Cell Counter (Bio-Rad Laboratories, Hercules, Calif., USA). Peritoneal secretory cells were left in a 24-well plate overnight at 37° C., and non-adherent cells were removed. The cells were then stimulated with 100 ng/ml lipopolysaccharide (LPS) for 24 hours. The supernatant was collected during cytokine analysis, and the level of TNFα in the supernatant was measured using BD OptEIA mouse ELISA sets (BD Biosciences, San Diego, Calif., USA) according to the manufacturer's protocol. […] IC50 (μM) values were measured twice, respectively, and expressed as mean±standard deviation.
On the technique in general: In an ELISA, binding on a coated surface is turned into a signal by an enzyme label.

The mark [6] stands for this setting: water solubility, read-out: Solubility.
The mark [7] stands for this setting: po, P.O, 20 mg/Kg, male CD-1 mice.
Setting [8] is: Mus musculus, Peritoneal macrophage, 24 h.

Like-named read-outs stand apart in the source and are kept apart here.

One may read the melting point as the temperature, or range, at which the solid turns liquid. Molecule `COc1ccc(/C=C/C(=O)c2ccc(O)cc2O)cc1O` [7b, (E)-1-(2,4-dihydroxyphenyl)-3-(3-hydroxy-4-methoxyphenyl)prop-2-en-1-one] yielded a melting point of 206.4 °C.

`O=C(/C=C/c1ccc(F)c(O)c1)c1ccc(O)cc1O` [7d, (E)-1-(2,4-dihydroxyphenyl)-3-(4-fluoro-3-hydroxyphenyl)prop-2-en-1-one] yielded a melting point of 252.4 °C.

The molecule `O=C(/C=C/c1ccc(O)c(O)c1)c1ccc(O)cc1F` [7g, (E)-3-(3,4-dihydroxyphenyl)-1-(2-fluoro-4-hydroxyphenyl)prop-2-en-1-one] returned a melting point of 207.8 °C.

With `CC(C)Oc1cc(O)ccc1C(=O)/C=C/c1ccc(O)c(O)c1` [7j, (E)-3-(3,4-dihydroxyphenyl)-1-(4-hydroxy-2-isopropoxyphenyl)prop-2-en-1-one], the melting point worked out at 80.4 °C.

For the molecule `COc1ccc(C(=O)/C=C/c2ccc(O)c(O)c2)c(OC)c1` [7k, (E)-3-(3,4-dihydroxyphenyl)-1-(2,4-dimethoxyphenyl)prop-2-en-1-one], the melting point was 162.9 °C.

Broadly, the solubility is the dissolved amount per volume that the medium holds. By Tmax is commonly meant the time from dosing to the highest level. Usually AUC(0-inf) stands for total exposure, with the tail of the curve extrapolated. What is called IC50 is the concentration that gives 50% inhibition. By inhibition is commonly meant how much of the control response was suppressed. As to `O=C(/C=C/c1ccc(O)c(O)c1)c1ccc(O)cc1O` [compound 1, (E)-1-(2,4-dihydroxyphenyl)-3-(3,4-dihydroxyphenyl)prop-2-en-1-one, reference compound], in data set [1], the “logP (partition coefficient)” value came out at 0.42. In addition, the solubility was 0.021 mg/mL in data set [1] (setting [6]) and 79 µM in [1] (water, read-out: water solubility). The “Cmax (maximum plasma concentration)” value in data set [2] (I.V, 1 mg/Kg, male CD-1 mice) is 0.041 µg/mL. Further, the Tmax in data set [2] (I.V, 1 mg/Kg, male CD-1 mice) is 6 min; in data set [2] (P.O, 20 mg/Kg, male CD-1 mice), 18 min; in data set [2] (P.O, 100 mg/Kg, male CD-1 mice) it was 18 min. In addition, the “BA (bioavailability)” value is on record as 15% in data set [2] (P.O, 20 mg/Kg, male CD-1 mice) and 37% in data set [2] (P.O, 100 mg/Kg, male CD-1 mice). The “terminal half-life” value in data set [2] (mice) is given as “too short terminal half-life”. Also, the AUC(0-inf) in data set [2] (iv, I.V, 1 mg/Kg, male CD-1 mice) was determined as 0.0067 µg·h/mL; in data set [2] (setting [7]), 0.021 µg·h/mL. The Cmax in [2] (setting [7]) came to 0.043 µg/mL; in data set [2] (po, P.O, 100 mg/Kg, male CD-1 mice), 0.601 µg/mL. Further, the “development of adipose tissue in the epidermal layer (H&E, FIG. 4A)” value in the data set with lymphedema tissue is on record as “inhibiting the development of adipose tissue in the epidermal layer”. Further, the “volume of lymphedema reduced by” value in [3] is recorded as 52%. Further, the “expression level of TNFα mRNA in lymphedema tissue (FIG. 3B)” value in the data set with TNFα is “decreased”. In addition, the “levels of PPARγ and Fabp4 mRNA (FIG. 4D)” value in data set [4] (lymphedema tissue) is reported as “superior efficacy compared to the control group”. Also, in [4], the “expression of PPARγ and Fabp4 in lymphedema tissue (western blot, FIG. 4C)” value is “reduced the expression of PPARγ”. Besides, in the data set on PPARγ, the “distribution of PPARγ in the epidermal layer of lymphedema tissue (FIG. 4B)” value was “suppressed”. In addition, the concentration for half-maximal inhibition (IC50) in data set [5] (setting [8]) worked out at 43 µM; in data set [5], 43.3 ± 1.72 µM. In data set [5] (Mus musculus, Peritoneal macrophage, treated in vitro at 20 μM, read-out: efficacy (inhibition)), the inhibition at 20 µM stood at 10%.

`Cc1cc(O)ccc1C(=O)/C=C/c1ccc(O)c(O)c1` [compound 7h, (E)-3-(3,4-dihydroxyphenyl)-1-(4-hydroxy-2-methylphenyl)prop-2-en-1-one] displayed a melting point of 208.2 °C. Further, the IC50 in [5] (setting [8]) is 48.4 ± 2.35 µM.

`Cc1ccc(C(=O)/C=C/c2ccc(O)c(O)c2)cc1` [compound 7l, (E)-3-(3,4-dihydroxyphenyl)-1-(p-tolyl)prop-2-en-1-one] returned a melting point of 190.9 °C. Moreover, the IC50 in data set [5] (setting [8]) amounted to 18.6 ± 1.5 µM. For the same molecule, the “IC50 value compared with positive control butein” value in data set [5] was “significantly superior IC50 values compared to butein”.

Consider `O=C(/C=C/c1ccc(O)c(O)c1)c1ccc(Cl)cc1` [compound 7m, (E)-1-(4-chlorophenyl)-3-(3,4-dihydroxyphenyl)prop-2-en-1-one], for which the “logP (partition coefficient)” value in data set [1] is recorded as 3.77. Also, in data set [1] (setting [6]), the solubility stood at 0.028 mg/mL. In addition, the “volume of lymphedema reduced by” value in data set [3] worked out at 53%. The IC50 in [5] (setting [8]) was 17.3 ± 2.11 µM. Further, in data set [5], the “IC50 value compared with positive control butein” value is on record as “significantly superior IC50 values compared to butein”.

As to `CC(=O)Oc1ccc(C(=O)/C=C/c2ccc(OC(C)=O)c(OC(C)=O)c2)c(OC(C)=O)c1` [compound 8a, (E)-4-(3-(2,4-diacetoxyphenyl)-3-oxoprop-1-en-1-yl)-1,2-phenylene diacetate], the melting point came to 131.3 °C. In addition, the IC50 in [5] (setting [8]) was found to be 12.8 ± 1.24 µM. In data set [5], the “IC50 value compared with positive control butein” value is reported as “significantly superior IC50 values compared to butein” and the “TNFα production inhibitory ability compared with butein (FIG. 1)” value is listed as “significantly better TNFα production inhibitory ability than the positive control butein treatment group”.

In the case of `O=C(Oc1ccc(C(=O)/C=C/c2ccc(OC(=O)c3ccccc3)c(OC(=O)c3ccccc3)c2)c(OC(=O)c2ccccc2)c1)c1ccccc1` [compound 8b, (E)-4-(3-(2,4-bis(benzoyloxy)phenyl)-3-oxoprop-1-en-1-yl)-1,2-phenylene dibenzoate], the melting point was 36.7 °C. The “TNFα production inhibitory ability compared with butein (FIG. 1)” value in data set [5] is recorded as “significantly better TNFα production inhibitory ability than the positive control butein treatment group”.

`Cc1ccc(C(=O)Oc2cc(O)ccc2C(=O)/C=C/c2ccc(O)c(O)c2)cc1` [compound 14b, (E)-2-(3-(3,4-dihydroxyphenyl)acryloyl)-5-hydroxyphenyl 4-methylbenzoate] yielded a melting point of 185.7 °C. Moreover, the IC50 in data set [5] (setting [8]) amounted to 18.9 ± 1.15 µM.

For `COc1ccc(C(=O)Oc2cc(O)ccc2C(=O)/C=C/c2ccc(O)c(O)c2)cc1` [compound 14c, (E)-2-(3-(3,4-dihydroxyphenyl)acryloyl)-5-hydroxyphenyl 4-methoxybenzoate], the melting point was found to be 161.1 °C. Moreover, in [5] (setting [8]), the IC50 stood at 20.8 ± 1.62 µM.

Molecule `O=C(Oc1cc(O)ccc1C(=O)/C=C/c1ccc(O)c(O)c1)c1ccc(Cl)cc1` [compound 14d] returned a melting point of 102.8 °C.
